Source: paper PMC10221320
Positions of bridges follow the written chain, without caps; N, C: chain ends. No end group written: not given here.

Experiments:
rat ASIC3 (rASIC3) = assay: Two-electrode voltage clamp, rASIC3 in Xenopus laevis oocytes; format: cell-based; conditions: 1 μM; pH drop from 7.4 to 5.5; −50 mV; n = 5; recombinant peptide
CD-1 mice [1] = assay: Acute toxicity, intravenous; format: in vivo, mouse; conditions: 1 mg/kg i.v., single; 24 h observation
Method: (§1) The animal studies were performed under the European Commission’s legislation (Directives 86/609/EEC, 2010/63/EU), the National Standard of the Russian Federation “Good Laboratory Practice” (GOST P 53434-2009, Moscow, Russia), and Committee on Ethics of Laboratory Animal Handling № 05/21, 20 September 2021 and 08/21, 30 December 2021 protocols (PIBOC FEB RAS). Adult female CD-1 mice weighing 25 ± 2 g were subjected to a 12 h light–dark cycle at room temperature and with ad libitum access to food and water. There were seven or eight individuals in each group.
Lyophilized peptides were dissolved in 0.9% NaCl solution (saline) and administered once intravenously at doses of 1 mg/kg; the control group received saline (10 mL/kg or 250 µL/mouse). Then, alterations in physiological parameters, such as motility, behavioral responses and physical activity, were registered in each of the animal groups over 24 h.

CD-1 mice [2] = assay: Acetic-acid-induced writhings (acid-induced muscle pain model); format: in vivo, mouse
Method: as §1
Three groups of animals were treated with peptides at doses of 0.01, 0.1 and 1 mg/kg (intravenously) 15 min before an injection of 300 μL of a 0.7% acetic acid solution. The control animal group received an identical volume of saline. The positive control group received intravenously a dose 1 mg/kg of diclofenac (Hemofarm A.D., Vršac, Serbia), a commercial drug of the NSAID group. Fifteen minutes immediately after acid administration, the number of writhings and the writhing time (time in a spasmodic state) were counted.

CD-1 mice [3] = assay: Open field test; format: in vivo, mouse; conditions: for N (c.z.), number of visits to central zone / N (def), number of bowel movements / N (peeps), number of peeps into minks / N (racks), vertical activity / N (s.p.), number of visits to side platform / S (act), distance traveled during activity / S, distance traveled / T (act), activity time / T (b.z.), staying on the border zone / T (c.z.), time spent on the central zone / T (e.c.z.), time of exit from the central zone / T (pass), passivity time / V(act), average movement speed during activity / V, average travel speed: mean ± SD
Method: as §1
The animal activity and anxiety-related and exploratory behaviors were estimated at the open field facility (OpenScience, Krasnogorsk, Russia). Three groups of animals were treated with peptides at doses of 0.01, 0.1 and 1 mg/kg (intravenously) 30 min before testing. The control group was injected with an identical volume (50 µL) of saline. The animals were placed in the center of the lightened arena, and the recording lasted 3 min. Using the software “Minotaur” (LLC “Neurobiotics”, Zelenograd, Russia), 14 parameters were estimated: time (T) of activity (act); passivity (pass); spent on the central zone (c.z.), staying on the border zone (b.z.); exit from the central zone (e.c.z.); average travel speed (V, m/s); average movement speed during activity (V(act)); distance traveled (S, m); distance traveled during activity (S (act)); number (N) of visits to central zone (c.z.); visits to side platform (s.p.); vertical activity (racks); peeps into minks (peeps); and bowel movements (def).

CD-1 mice [4] = assay: Complete Freund's adjuvant-induced acute inflammation; format: in vivo, mouse
Method: as §1
Three groups of animals were treated with peptides at doses of 0.01, 0.1 and 1 mg/kg (intravenously) 30 min before the induction of inflammation. The control animal group received an identical volume of saline. The positive control group received diclofenac (Hemofarm A.D., Vršac, Serbia) at a dose of 1 mg/kg. The edema was induced by a 20 µL injection of complete Freund’s adjuvant (CFA) (MP Biomedicals, Irvine, CA, USA) in the hind paw pad. The resulting edema was measured at 1, 2, 4, 24 and 48 h using a plethysmometer (Ugo Basile, Gemonio (VA), Italy). The anti-inflammatory threshold was estimated as a decrease in the paw volume and volume growth index (%), calculated using the formula: Volume Growth Index (%) = [(VCFA − Vi)/Vi] × 100, (1), where VCFA is the volume of the paw after the introduction of CFA and Vi is the volume of the paw before the introduction of CFA.

rat ASIC1a (rASIC1a) = assay: Two-electrode voltage clamp, rASIC1a in Xenopus laevis oocytes; format: cell-based; conditions: 1 μM; pH drop from 7.4 to 5.5; −50 mV; n = 5; recombinant peptide
[5] = i.v. 15 min before 0.7% acetic acid
[6] = 0.01 mg/kg i.v. 30 min before testing, n = 7–8
[7] = 0.1 mg/kg i.v. 30 min before testing, n = 7–8
[8] = 1 mg/kg i.v. 30 min before testing, n = 7–8

GTPCDCYGYTGVYWFMLSRCPSGYGYNLSCHYFMGICCVKR (disulfide 4-37, 6-30, 20-38 (inferred)) [Hmg 1b-4]
potentiation of rASIC3 currents (rat ASIC3 (rASIC3)): 29% | toxicity symptoms (CD-1 mice [1]): did not cause the symptoms of neurotoxicity or obvious changes in the behavior of animals | difference in analgesic activity between the two peptides (CD-1 mice [2]; i.v.): no significant difference in analgesic activity between each other | reduction in duration of writhings vs control (CD-1 mice [2]; [5]): more than 2.5 times | reduction in number of writhings vs control (CD-1 mice [2]; [5]): 1.5 times | N (c.z.), number of visits to central zone (CD-1 mice [3]; [6]): 12 ± 0.8 | N (def), number of bowel movements (CD-1 mice [3]; [6]): 1.2 ± 0.2 | N (peeps), number of peeps into minks (CD-1 mice [3]; [6]): 8.0 ± 0.5 | N (racks), vertical activity (CD-1 mice [3]; [6]): 27.2 ± 1.9 | N (s.p.), number of visits to side platform (CD-1 mice [3]; [6]): 13.3 ± 1.1 | S (act), distance traveled during activity (CD-1 mice [3]; [6]): 25.0 ± 2.4 m | S, distance traveled (CD-1 mice [3]; [6]): 25.0 ± 1.8 m | T (act), activity time (CD-1 mice [3]; [6]): 113.5 ± 9.5 s | T (b.z.), staying on the border zone (CD-1 mice [3]; [6]): 145.4 ± 5.2 s | T (c.z.), time spent on the central zone (CD-1 mice [3]; [6]): 34.2 ± 2.8 s | T (e.c.z.), time of exit from the central zone (CD-1 mice [3]; [6]): 6.5 ± 3.1 s | T (pass), passivity time (CD-1 mice [3]; [6]): 64.2 ± 7.4 s | V(act), average movement speed during activity (CD-1 mice [3]; [6]): 0.22 ± 0.02 m/s | V, average travel speed (CD-1 mice [3]; [6]): 0.14 ± 0.02 m/s | N (c.z.), number of visits to central zone (CD-1 mice [3]; [7]): 21.2 ± 6.1 | N (def), number of bowel movements (CD-1 mice [3]; [7]): 0 | N (peeps), number of peeps into minks (CD-1 mice [3]; [7]): 7.8 ± 2.1 | N (racks), vertical activity (CD-1 mice [3]; [7]): 37.0 ± 7.8 | N (s.p.), number of visits to side platform (CD-1 mice [3]; [7]): 20.1 ± 6.4 | S (act), distance traveled during activity (CD-1 mice [3]; [7]): 24.2 ± 5.1 m | S, distance traveled (CD-1 mice [3]; [7]): 24.2 ± 5.1 m | T (b.z.), staying on the border zone (CD-1 mice [3]; [7]): 127.5 ± 10.0 s | T (c.z.), time spent on the central zone (CD-1 mice [3]; [7]): 53.8 ± 10.3 s | T (e.c.z.), time of exit from the central zone (CD-1 mice [3]; [7]): 6.1 ± 3.3 s | T (pass), passivity time (CD-1 mice [3]; [7]): 55.1 ± 11.1 s | V(act), average movement speed during activity (CD-1 mice [3]; [7]): 0.22 ± 0.03 m/s | V, average travel speed (CD-1 mice [3]; [7]): 0.14 ± 0.03 m/s | T (act), activity time (CD-1 mice [3]; 0.1 mg/kg i.v. 30 min before testing, n = 7–8 (SD on next line: Hmg 1b-2 10.7, Hmg 1b-4 13.1)): 122.3 s | time spent in the center of the arena (CD-1 mice [3]; 0.1 mg/kg i.v., vs control): increased the time the animals spent in the center of the arena | N (c.z.), number of visits to central zone (CD-1 mice [3]; [8]): 16.8 ± 2.7 | N (def), number of bowel movements (CD-1 mice [3]; [8]): 0.5 ± 0.7 | N (peeps), number of peeps into minks (CD-1 mice [3]; [8]): 9.0 ± 1.5 | N (racks), vertical activity (CD-1 mice [3]; [8]): 37.4 ± 3.9 | N (s.p.), number of visits to side platform (CD-1 mice [3]; [8]): 16.9 ± 2.8 | S (act), distance traveled during activity (CD-1 mice [3]; [8]): 24.6 ± 7.5 m | S, distance traveled (CD-1 mice [3]; [8]): 24.6 ± 2.3 m | T (b.z.), staying on the border zone (CD-1 mice [3]; [8]): 143.8 ± 8.2 s | T (c.z.), time spent on the central zone (CD-1 mice [3]; [8]): 34.9 ± 5.9 s | T (e.c.z.), time of exit from the central zone (CD-1 mice [3]; [8]): 6.4 ± 2.4 s | T (pass), passivity time (CD-1 mice [3]; [8]): 56.8 ± 9.1 s | V(act), average movement speed during activity (CD-1 mice [3]; [8]): 0.21 ± 0.02 m/s | V, average travel speed (CD-1 mice [3]; [8]): 0.14 ± 0.01 m/s | T (act), activity time (CD-1 mice [3]; 1 mg/kg i.v. 30 min before testing, n = 7–8 (SD on next line: Hmg 1b-4 10.4)): 119.9 s | number of vertical stances (CD-1 mice [3]; 0.1 and 1 mg/kg i.v., vs control): increased | conclusion on CNS effect (CD-1 mice [3]; i.v.): anxiolytic effect | effect on distance travelled and speed of movement (CD-1 mice [3]; i.v.): did not affect these options | exploration activity (number of peeps into the holes) (CD-1 mice [3]; i.v.): significantly increased the exploration activity of mice | most effective dose on peeps into the holes (CD-1 mice [3]; i.v.): 1 mg/kg | percentage of the activity time (CD-1 mice [3]; i.v., control group 50%, significant increase): 70% | decrease in paw volume and growth index of edema (CD-1 mice [4]; 1 mg/kg i.v.): more than 1.5 times | anti-inflammatory effect (CD-1 mice [4]; 0.01, 0.1 and 1 mg/kg i.v. 30 min before CFA): demonstrated an anti-inflammatory effect at all tested doses | paw edema volume decrease compared with diclofenac (CD-1 mice [4]; 1 and 0.1 mg/kg i.v., diclofenac 1 mg/kg i.v.): greater than the decreases caused by diclofenac | anti-inflammatory effectiveness vs other APETx-like / sea anemone peptides (CD-1 mice [4]; comparison with APETx2 and Ugr 9-1 data of ref [34]): significantly superior not only to Hmg 1b-2, but also to APETx2 and Ugr 9-1 | inhibition of rASIC1a currents (rat ASIC1a (rASIC1a)): 45%
